Source: patent US20140364359A1, “COMPOSITIONS AND METHODS FOR TREATING CANCER AND INFLAMMATION-RELATED DIESEASES AND CONDITIONS” (priority 2012, published 2014)
Entries after “also recorded” stand apart in the source; their conditions may differ. Read-outs that look alike come from different tables or passages of the source.

How the values were obtained:
[1] = test system: SGC-7901 peritoneal carcinomatosis; assay: GC peritoneal carcinomatosis model, therapeutic study; format: in vivo, nude mice; details: ADM 2.0 mg/kg; for lung metastasis / median (range) ePCI score: D40; for lung metastasis / relative ePCI reduction: PADM 7.2 mg/kg i.p x8; for median (range) ePCI score: i.p x8 (D8-D36), PADM 7.2 mg/kg; for relative ePCI reduction: compared with control
Metastases = assay: Percent inhibition of growth relative to controls, metastases (Table 4); format: in vivo
SGC-7901 cells [2] = assay: Cell growth assay; format: cell-based; details: Homo sapiens, read-out: inhibition rate of cell growth
Protocol: (§1) Human gastric adenocarcinoma cell line SGC-7901 which had been widely used for gastric cancer research was maintained in Hubei Key Laboratory of Tumor Biological Behaviors. Cells were cultured in RPMI-1640 medium supplemented with 10% standard newborn bovine serum in the 5% CO2, saturated humidity, 37° C. incubator (Shel Lab, OR, USA). The culture medium was changed every 2 days.
SGC-7901 cells at exponential growth phase were planted in 24-well culture plates (Corning, N.Y., USA) at a density of 1×10^5/well. After 48 h, cell numbers were determined by direct cell counting of 3 wells, which was designated as cell number of day 0 (D0). Then the cells were divided into 6 groups, treated with normal saline (100 μl), ADM (0.5 μg/ml), ADM (1.0 μg/ml), PADM (0.9 μg/ml), PADM (1.8 μg/ml), and PADM (3.6 μg/ml), respectively, 3 wells per group. Cells in each group were harvested and counted daily from D2 to D7. The cell growth curve was plotted.

[3] = mice, cited from earlier work
[4] = for peripheral blood parameters (RBC, lymphocytes) versus control: D16, D24, D32 tail vein blood; for liver and kidney function (ALT, AST, BUN, Cr) versus control: D40 serum, 4 major parameters; for body weight: ADM 2.0 mg/kg, PADM 7.2 mg/kg i.p x8 (FIG. 3)
Protocol: After 3 days of adaptation, the animals were used for in vivo study, and the protocols were approved by the Animal Care Committee of Wuhan University.
SGC-7901 cells (5×10^6/0.2 ml) were subcutaneously inoculated into the back of nude mice (n=4) as donor tumors, and cells (1×10^7/0.4 ml) were i.p inoculated into the peritoneal cavity of nude mice (n=2). After 50 days, tumor nodules and ascites were obtained and tumor tissue homogenate was re-suspended in ascites at a density of 1×10^7/ml (ascites were used as condition medium). These cell suspensions were injected i.p into 29 nude mice, 0.2 ml containing 5×10^6 cells for each animal, on day 0 (D0). On D8, all of the mice were randomized into 3 groups: control group (n=9), ADM group (n=10) and PADM group (n=10). […] D40 was set as the end point of this study. On D16, D24 and D32, 80 μl of blood was obtained from tail veins, anticoagulated by EDTA, and analyzed by Sysmex KX-21 automated hematology analyzer (Sysmex, Kobe, Japan). On D40, all mice were sacrificed, blood was obtained, coagulated and centrifugated at 4° C.×3000 rpm for 10 min to separate serum for biochemical analysis, including ALT (alanine aminotransferase), AST (aspartate aminotransferase), BUN (blood urea nitrogen), Cr (creatinine), CK (creatine kinase), CK-MB (creatine kinase-MB), LDH (lactate dehydrogenase) by Aeroset Clinical Chemistry Analyzer (Abbott Laboratories, IL, USA).
At autopsy, major organs including the heart, liver, kidneys, spleen and lungs were examined for any toxic changes. Any organs involved by the tumor and the tumor nodules were formalin-fixed, paraffin-embedded, and cut at 5-μm thickness, for histopathological study after hematoxylin and eosin (H&E) staining

Primary tumor = assay: Percent inhibition of growth relative to controls, primary tumor (Table 4); format: in vivo
SGC-7901 cells [5] = assay: Flow cytometric analysis of cell cycle; format: cell-based, Human; details: SGC-7901, 24 h, ADM 0.25 μg/ml, PADM 0.45 μg/ml
Protocol: as §1
To study the effect of PADM on cell cycle, flow cytometric analysis was performed. SGC-7901 cells were planted in 6-well culture plates (Corning, N.Y., USA), at a density of 2×10^6/well. After 48 h, the cells were divided into 3 groups and treated for 24 h with normal saline (25 μl), ADM (0.25 μg/ml), and PADM (0.45 μg/ml). The cells in each group were harvested to make single-cell suspension, centrifuged at 4° C.×1000 rpm for 10 min, washed twice with phosphate buffered saline (pH=7.4), fixed and stained with PI kit. Cell cycle analysis was performed by flow cytometry with FC 500 (Beckman Coulter, Calif., USA).

Pilot dosage study = details: nude mice
Cat B = Cat B (Homo sapiens, UniProt P07858); details: cited from earlier work
[6] = 37° C., over 6-7 h; cited from earlier work
[7] = Metastases to Mediastinal lymph nodes

## COc1cccc2c1C(=O)c1c(O)c3c(c(O)c1C2=O)C[C@@](O)(C(=O)CO)C[C@@H]3O[C@H]1C[C@H](N)[C@H](O)[C@H](C)O1 [ADM, doxorubicin, reference compound]
[1]
  lung metastasis: no lung metastasis
  median (range) ePCI score: 1.5 (0-6)
  relative ePCI reduction: 75%
Metastases; Metastases to Diaphragm
  Percent inhibition of growth relative to controls: 19%
Metastases; Metastases to Lung
  Percent inhibition of growth relative to controls: 36%
Metastases; [7]
  Percent inhibition of growth relative to controls: 9.1%
Metastases; Metastases to Mesenteric
  Percent inhibition of growth relative to controls: 9.1%
Metastases; Metastases to Retroperitoneal
  Percent inhibition of growth relative to controls: 65%
SGC-7901 cells [2]; SGC-7901, D7, 0.5 μg/ml
  inhibition at 0.5 µg/mL: 80.2%
SGC-7901 cells [2]; SGC-7901, D7, 1.0 μg/ml
  inhibition at 1 µg/mL: 96.3%
[3]; given intraperitoneally (i.p)
  LD50: 13.2 mg/kg
[3]; given intravenously
  LD50: 12.0 mg/kg
[4]
  peripheral blood parameters (RBC, lymphocytes) versus control: significantly lower RBC counts
  liver and kidney function (ALT, AST, BUN, Cr) versus control: 3 out of the 4 parameters achieved statistical significance
[4]; D36, group n=10
  nude mice died due to severe toxicity: 1
[4]; male, BALB/c nude, mouse, in vivo
  animals with significant myocardium toxicities (histopathology): 7 animals
[4]; nude mice PC model, whole study period to D40
  body weight course versus control: significant decrease on D24
[4]; nude mice PC model
  body weight: 18.40 ± 2.97 g
Primary tumor
  Percent inhibition of growth relative to controls: 42%
SGC-7901 cells [5]
  effect on cell cycle / apoptosis: a prominent apoptosis peak was observed

## COc1cccc2c1C(=O)c1c(O)c3c(c(O)c1C2=O)C[C@@](O)(C(=O)CO)C[C@@H]3O[C@H]1C[C@H](NC(=O)OCc2ccc(NC(=O)[C@H](CCCCN)NC(=O)[C@H](Cc3ccccc3)NC(C)=O)cc2)[C@H](O)[C@H](C)O1 [PADM, Ac-Phe-Lys-PABC-ADM]
Pilot dosage study; after 4 administrations
  histopathological study of major organs: No obvious damages
Pilot dosage study; after the fourth administration, total 96.0 mg/kg group A, 144.0 mg/kg group B
  body weight changes: persistent body weight decreases
Pilot dosage study; i.p, first 3 injections, groups A and B
  body weight changes: no obvious changes in body weight
Pilot dosage study; total dosage
  ceiling dosage set for formal in vivo test: below 96.0 mg/kg
[1]
  lung metastasis: no lung metastasis
  median (range) ePCI score: 1 (1-4)
  relative ePCI reduction: 83.3%
Cat B
  cleavage in Cat B-rich medium: rapidly cleaved
Metastases; Metastases to Diaphragm
  Ratio, PADM/Dox: 2.3
Metastases; Metastases to Lung
  Ratio, PADM/Dox: 1.9
Metastases; [7]
  Ratio, PADM/Dox: 5.7
Metastases; Metastases to Mesenteric
  Ratio, PADM/Dox: 3.8
Metastases; Metastases to Retroperitoneal
  Ratio, PADM/Dox: 1.2
[6]
  changes in human plasma (stability): no changes were observed; also recorded: stable in human plasma
[4]
  peripheral blood parameters (RBC, lymphocytes) versus control: no differences
  liver and kidney function (ALT, AST, BUN, Cr) versus control: only ALT levels achieved statistical significance
[4]; D40, group n=10
  animals with significant myocardium toxicities (histopathology): 4 animals
[4]; nude mice PC model
  body weight: 23.61 ± 0.80 g
Primary tumor
  Ratio, PADM/Dox: 1.05
SGC-7901 cells [5]
  effect on cell cycle / apoptosis: did not show significant apoptosis
